This is an account of results in ChEMBL document CHEMBL5136982, “Structure-Based Design of Potent, Selective, and Orally Bioavailable VPS34 Kinase Inhibitors” (J Med Chem, 2022).

The nature of data set [1]: Lipophilicity, logD of compound at pH 7.4 by shake flask method. It counts as physicochemical. The conditions noted are these: buffer.
Data set [2] in a line: Microsomal stability in human liver microsome assessed as clearance at 1.0 uM preincubated for 5 mins followed by NADPH addition measured upto 60 mins by LC-MS/MS analysis. The format is ADME. As to conditions: liver microsomes, time < 65 min.
Data set [3] is described as follows: Microsomal stability in rat liver microsome assessed as clearance at 1.0 uM preincubated for 5 mins followed by NADPH addition measured upto 60 mins by LC-MS/MS analysis. The format is ADME. As to conditions: liver microsomes, time < 65 min.
The nature of data set [4]: Plasma clearance in Sprague-Dawley rat at 0.5 mg/kg, iv measured upto 8 hrs by LC-MS/MS analysis. It counts as ADME, organism-based.
Data set [5] is described as follows: Volume of distribution at steady state in Sprague-Dawley rat at […] measured upto 8 hrs by LC-MS/MS analysis. The conditions noted are these: in vivo. The format is ADME, organism-based.
A short description of data set [6]: Oral bioavailability in Sprague-Dawley rat at 2 mg/kg measured upto 8 hrs by LC-MS/MS analysis. The conditions noted are these: in vivo. It counts as ADME, organism-based.
Data set [7] is described as follows: AUC in Sprague-Dawley rat at 0.5 mg/kg, iv measured upto 8 hrs by LC-MS/MS analysis. It counts as ADME, organism-based. The arrangement: dose 0.5 mg/kg, time < 8 hrs, route iv. As to conditions: in vivo.
Data set [8] is described as follows: Half life in Sprague-Dawley rat at 2 mg/kg, po measured upto 8 hrs by LC-MS/MS analysis. It counts as ADME, organism-based. The conditions noted are these: in vivo.
The nature of data set [9]: Unbound clearance in Sprague-Dawley rat at 0.5 mg/kg, iv measured upto 8 hrs by LC-MS/MS analysis. The format is ADME, organism-based. As to conditions: in vivo.

The structures appear in SMILES notation. A value given as a limit tells only on which side of the number the result lay.

Take `CC(C)[C@@H]1CNC(=O)c2cc(-c3ccnc(NC(=O)C4CC4)c3)nn21`: in data set [1], the logD was found to be 2.4. Besides, the CLhep predicted at 1 µM in [2] is below 3.9 mL/min/kg; in data set [3], 22 mL/min/kg.
Take `C[C@@H]1COCCN1c1cc2n(n1)C(C(C)(C)O)CNC2=O` (single isomer, unassigned): the CLhep predicted at 1 µM in [2] is below 3.9 mL/min/kg; in data set [3], below 6.1 mL/min/kg.
`C[C@@H]1COCCN1c1cc2n(n1)[C@H](C1CC1)CNC2=O` registered a pH-dependent lipophilicity (logD) in [1] of 1. For the same compound, the CLhep predicted at 1 µM was below 3.9 mL/min/kg in data set [2] and 11 mL/min/kg in data set [3].
Compound `C[C@@H]1COCCN1c1cc2n(n1)[C@@H]1CCC[C@@H]1NC2=O` returned a logD in [1] of 1. Besides, the results for the CLhep predicted at 1 µM in data set [2] and in data set [3] were below 3.9 mL/min/kg and below 6.1 mL/min/kg, respectively. This compound returned a clearance in data set [4] of 7.8 mL/min/kg. In data set [5], this compound registered a Vdss of 0.83 L/kg. The compound also yielded a bioavailability in data set [6] of 61%. Moreover, the exposure (AUC) at 8 h in [7] was 4 µM·h. The half-life in [8] is 1.4 h.
In the case of `C[C@@H]1COCCN1c1cc2n(n1)[C@H](C(C)(C)C)CNC2=O`, the log distribution coefficient (logD) in data set [1] was found to be 1.4. Moreover, the CLhep predicted at 1 µM was 4.7 mL/min/kg in data set [2] and 24 mL/min/kg in data set [3].
`O=C(Nc1cc2cc(-c3nncn3-c3ccccc3Cl)ccc2cn1)C1CC1F` (configuration not stated) registered a pH-dependent lipophilicity (logD) in data set [1] of 3.1. Also, the CLhep predicted at 1 µM in [2] is 12 mL/min/kg; in data set [3], 7.2 mL/min/kg.
With `C[C@@H]1COCCN1c1cc2n(n1)[C@H](C1CCC1)CNC2=O`, in data set [1], the logD amounted to 1.5. Further, the CLhep predicted at 1 µM in data set [2] was below 3.9 mL/min/kg; in data set [3] it was 23 mL/min/kg.
In the case of `C[C@@H]1COCCN1c1cc2n(n1)C[C@H](C(F)(F)F)NC2=O`, the logD in data set [1] came to 1.1. Moreover, the CLhep predicted at 1 µM was below 3.9 mL/min/kg in data set [2] and below 6.1 mL/min/kg in [3].
In data set [1], `Cc1cnc(NC(=O)C2CC2)cc1-c1cc2n(n1)[C@H](C(C)C)CNC2=O` showed a logD of 2.5. Moreover, the CLhep predicted at 1 µM in data set [2] is 11 mL/min/kg; in data set [3], 25 mL/min/kg.
In the case of `C[C@@H]1COCCN1c1cc2n(n1)[C@H](C(F)(F)F)CNC2=O`, the log distribution coefficient (logD) in data set [1] was 0.8. Moreover, the CLhep predicted at 1 µM in [2] was below 3.9 mL/min/kg; in [3] it was 8.5 mL/min/kg.
In data set [1], `O=C(Nc1cc(-n2cnc3ccccc32)ccn1)C1CC1` displayed a logD of 2.8. Moreover, the CLhep predicted at 1 µM in [2] was 19 mL/min/kg; in [3], 34 mL/min/kg.
With `CC(C)[C@@H]1CNC(=O)c2cc(N3CCOC[C@H]3C)nn21`, in [9], the CL free worked out at 19 mL/min/kg. In [1], the pH-dependent lipophilicity (logD) worked out at 1.2. The CLhep predicted at 1 µM in data set [2] was below 3.9 mL/min/kg; in [3] it was 12 mL/min/kg. Moreover, the bioavailability in [6] came to 68%.
Compound `C[C@@H]1CNC(=O)c2cc(-c3ccnc(NC(=O)C4CC4)c3)nn21` gave a logD in data set [1] of 1.7. The CLhep predicted at 1 µM in [2] was below 3.9 mL/min/kg; in data set [3], below 6.1 mL/min/kg.
With `NC(=O)c1ccccc1Nc1ccnc(NC(=O)C2CC2)c1`, the pH-dependent lipophilicity (logD) in data set [1] stood at 1.8. Further, the results for the CLhep predicted at 1 µM in [2] and in [3] were 5 mL/min/kg and 15 mL/min/kg, respectively.
For `C[C@@H]1COCCN1c1cc2n(n1)[C@H](C1CC1)C(C)(C)NC2=O`, in data set [1], the logD was found to be 1.5. Moreover, the figures for the CLhep predicted at 1 µM in data set [2] and in [3] were below 3.9 mL/min/kg and below 6.1 mL/min/kg, respectively.
In [1], `C[C@@H]1COCCN1c1cc2n(n1)[C@H](C1CCCC1)CNC2=O` registered a logD of 1.6. Besides, the figures for the CLhep predicted at 1 µM in [2] and in data set [3] were 9.1 mL/min/kg and 28 mL/min/kg, respectively.
For `C[C@@H]1COCCN1c1cc2n(n1)[C@H](C1CC1)[C@H](C1CC1)NC2=O` the same measures were 1.7, below 3.9 mL/min/kg and below 6.1 mL/min/kg.
As for `O=C(Nc1cc(-c2ccn3ccnc3c2)ccn1)C1CC1`, the logD in data set [1] came out at 2.1. Also, the CLhep predicted at 1 µM is 17 mL/min/kg in data set [2] and 40 mL/min/kg in data set [3].
In the case of `CC(C)[C@@H]1CNC(=O)c2cc(N3CCOCC3)nn21`, in data set [1], the logD was 0.7. Also, the results for the CLhep predicted at 1 µM in data set [2] and in data set [3] were below 3.9 mL/min/kg and below 6.1 mL/min/kg, respectively.
For `C[C@@H]1COCCN1c1cc2n(n1)[C@H](C1CC1)C1(CC1)NC2=O`, in [1], the logD stood at 1.6. Further, the CLhep predicted at 1 µM in [2] is below 3.9 mL/min/kg; in [3] it was 11 mL/min/kg.
On the same counts, the results for `Cn1ccc(-c2ccnc(NC(=O)C3CC3)c2)cc1=O` are 1.3, 6.4 mL/min/kg and below 6.1 mL/min/kg.
`C[C@@H]1NC(=O)c2cc(N3CCOC[C@H]3C)nn2[C@@H]1C1CC1` returned a logD in data set [1] of 1.3. The CLhep predicted at 1 µM is below 3.9 mL/min/kg in data set [2] and 7.8 mL/min/kg in [3].
